Values quoted from earlier work as cited in US20050234025A1, “Compositions comprising one or more policosanols and/or policosanoic acids combined with sterol and/or steroid based ascorbic acid derivatives, and uses thereof” (FORBES MEDI-TECH INC., priority 2004, published 2005).

Tested on: mice
Conditions: Ben-David et al.

C[C@]12CC[C@H](O)CC1=CC[C@@H]1[C@@H]2CC[C@]2(C)C(=O)CC[C@@H]12 [DHEA, dehydroepiandrostrone]
effect on cholesterol (anti-hypercholesterolemic effect): anti-hypercholesterolemic effect
